Experimental findings from patent publication US12459898B2, “Polycationic amphiphiles as antimicrobial agents and methods using same” (Temple University-Of The Commonwealth System of Higher …, priority 2016, dated 2025) are described below.

Assay type in all cases: cell-based
Data set [1] has as its system community-acquired methicillin-resistant Staphylococcus aureus CA-MRSA (USA300-0114). Description: Minimum inhibitory concentration (MIC), CA-MRSA. To be noted: MH media, 37° C., 72 hours, visual growth. On the procedure:
(§1) As used herein, the term “minimum inhibitory concentration (MIC)” refers to the lowest concentration of an antimicrobial agent that will inhibit the visible growth of a microorganism after overnight incubation. MIC values against bacteria, for example, the Gram-positive Staphylococcus aureus and Enterococcus faecalis and the Gram-negative Escherichia coli and Pseudomonas aeruginosa were determined by standard methods. See also P. A. Wayne, Methods for Dilution Antimicrobial Tests for Bacteria that Grow Aerobically; Approved Standard, Ninth Edition, 2012, CLSI Document M07-A9, Vol. 32 No. 2, which is incorporated by reference herein in its entirety.
(§2) For all biological assays, laboratory strains of methicillin-susceptible Staphylococcus aureus MSSA (SH1000), Enterococcus faecalis (OG1RF), Escherichia coli (MC4100), Pseudomonas aeruginosa (PAO1), community-acquired methicillin-resistant Staphylococcus aureus CA-MRSA (USA300-0114), and hospital-acquired methicillin-resistant Staphylococcus aureus HA-MRSA (ATCC 33591) were grown with shaking at 37° C. overnight from freezer stocks in 10 mL of the indicated media.
(§3) Compounds were serially diluted two-fold from stock solutions to yield twelve test concentrations. Overnight S. aureus, E. faecalis, E. coli, P. aeruginosa, USA300-0114 (CA-MRSA), and ATCC 33591 (HA-MRSA) cultures diluted to ca. 10^6 cfu/mL in MH media and 100 μL were inoculated into each well of a U-bottom 96-well plate (BD Biosciences, BD 351177) containing 100 μL of compound solution. Plates were incubated statically at 37° C. for 72 hours upon which time wells were evaluated visually for bacterial growth. The MIC was determined as the lowest concentration of compound resulting in no bacterial growth visible to the naked eye, based on the majority of three independent experiments. Aqueous DMSO controls were conducted as appropriate for each compound.

Data set [2] has as its system Escherichia coli (MC4100). Description: Minimum inhibitory concentration (MIC), E. coli. To be noted: MH media, 37° C., 72 hours, visual growth. On the procedure:
as §1, §2, §3

Data set [3] relates to Pseudomonas aeruginosa (PAO1). Description: Minimum inhibitory concentration (MIC), P. aeruginosa. The following applies: MH media, 37° C., 72 hours, visual growth. The method, then: as §1, §2, §3
The subject of data set [4] is Enterococcus faecalis (OG1RF). Description: Minimum inhibitory concentration (MIC), E. faecalis. The following applies: MH media, 37° C., 72 hours, visual growth. The method, then:
as §1, §2, §3

Data set [5] deals with methicillin-susceptible Staphylococcus aureus MSSA (SH1000). Description: Minimum inhibitory concentration (MIC), S. aureus. The following applies: MH media, 37° C., 72 hours, visual growth. The method, then: as §1, §2, §3
For data set [6], the system named is hospital-acquired methicillin-resistant Staphylococcus aureus HA-MRSA (ATCC 33591). Description: microbe, parasite or virus in culture. The following applies: for MIC: Staphylococcus aureus, 72 h, read-out: MIC, HA-MRSA. On the procedure: as §1, §2, §3
The test system of data set [7] is red blood cells (mechanically defibrinated sheep blood). Description: Red blood cell (RBC) lysis assay (Lysis20). To be noted: sheep RBCs in PBS, 37° C., 1 hour, absorbance 540 nm; Table 1. The source says:
These assessments followed standard protocols (Minbiole et al., 2016, Tetrahedron, 72: 3559-3566, Forman et al., 2016, ChemMedChem, 11: 1401-1405, Forman et al., 2016, ChemMedChem, 11: 958-962, Mitchell et al., 2015, ChemBioChem, 16: 2299-2303, Jennings et al., 2015, ACS Inf. Dis, 1: 304-308, Paniak et al., 2014, Bioorg. Med. Chem. Lett, 24: 5824-5828, Ator et al., 2014, Bioorg. Med. Chem. Lett, 24: 3706-3709, Jennings et al., 2014, ChemBioChem, 15: 2211-2215, Black et al., 2014, Bioorg. Med. Chem. Lett, 24, 99-102, Grenier et al., 2012, Bioorg. Med. Chem. Lett, 22: 4055-4058).
RBC lysis assays were performed on mechanically defibrinated sheep blood (Hemostat Labs: DSB030). 1.5 mL of blood was placed into a microcentrifuge tube and centrifuged at 10,000 rpm for ten minutes. The supernatant was removed and the cells were resuspended with 1 mL of phosphate-buffered saline (PBS). The suspension was centrifuged as previously, the supernatant was removed, and cells were resuspended two more times. The final cell suspension was diluted twentyfold with PBS. The twentyfold suspension dilution was then aliquoted into microcentrifuge tubes containing compound serially diluted in PBS. TritonX (1% by volume) served as a positive control (100% lysis marker) and sterile PBS served as a negative control (0% lysis marker). Samples were then placed in an incubator at 37° C. and shaken at 200 rpm. After 1 hour, the samples were centrifuged at 10,000 rpm for ten minutes. The absorbance of the supernatant was measured with a UV spectrometer at a 540 nm wavelength.

As for `CCCCCCCCCCC[n+]1cccc(CN(Cc2ccc[n+](CCCCCCCCCCC)c2)Cc2ccc[n+](CCCCCCCCCCC)c2)c1` [M3Pyr-11,11,11], the MIC in data set [1] came to 0.5 µM; in data set [2], 1 µM; in data set [3], 4 µM; in data set [4], 1 µM; in data set [5], 0.5 µM; in data set [6], 0.5 µM. In addition, the “Lysis20 (highest concentration at which <20% of RBCs are lysed)” value in data set [7] was found to be 4 μm.
In the case of `CCCCCCCCCCCCCCCC[n+]1cccc(CN(Cc2ccc[n+](CCCCCCCCCCCCCCCC)c2)Cc2ccc[n+](CCCCCCCCCCCCCCCC)c2)c1` [M3Pyr-16,16,16], the MIC in data set [1] was 4 µM; in data set [2], 125 µM; in data set [3], not below 250 µM; in data set [4] it was 8 µM; in data set [5], 2 µM; in data set [6], 2 µM. Besides, in data set [7], the “Lysis20 (highest concentration at which <20% of RBCs are lysed)” value is on record as 4 μm.
`CCCCCCCCCC[n+]1cccc(CN(Cc2ccc[n+](CCCCCCCCCC)c2)Cc2ccc[n+](CCCCCCCCCC)c2)c1` [M3Pyr-10,10,10]: the MIC stood at 0.5 µM in data set [1]; 1 µM in data set [2]; 2 µM in data set [3]; 1 µM in data set [4]; 0.5 µM in data set [5]; 0.5 µM in data set [6]. The “Lysis20 (highest concentration at which <20% of RBCs are lysed)” value in data set [7] came to 4 μm.
For the molecule `CCCCCCCC[n+]1ccc(CCCc2cc[n+](CCCCCCCC)cc2)cc1` [2Pyr-8,8], the MIC is 16 µM in data set [1]; 32 µM in data set [2]; more than 250 µM in data set [3]; 63 µM in data set [4]; 8 µM in data set [5]; 63 µM in data set [6]. Besides, the “antibacterial resistance (increase in MIC)” value in data set [6] (strain not given, Table 1 fits HA-MRSA vs S. aureus) is given as 8 fold. For the same molecule, the “Lysis20 (highest concentration at which <20% of RBCs are lysed)” value in data set [7] is on record as 125 μm.
As for `CCCCCCCCCCCCC[n+]1cccc(CN(Cc2ccc[n+](CCCCCCCCCCCCC)c2)Cc2ccc[n+](CCCCCCCCCCCCC)c2)c1` [M3Pyr-13,13,13], the MIC was found to be 0.25 µM in data set [1]; 2 µM in data set [2]; 8 µM in data set [3]; 1 µM in data set [4]; 1 µM in data set [5]; 0.5 µM in data set [6]. The “Lysis20 (highest concentration at which <20% of RBCs are lysed)” value in data set [7] was 2 μm.
Regarding `CCCCCCCCCCCCCCCC[n+]1ccc(CCCc2cc[n+](CCCCCCCCCCCCCCCC)cc2)cc1` [2Pyr-16,16], the MIC in data set [1] is 4 µM; in data set [2], 63 µM; in data set [3], more than 250 µM; in data set [4], 8 µM; in data set [5], 4 µM; in data set [6], 8 µM. In data set [7], the “Lysis20 (highest concentration at which <20% of RBCs are lysed)” value was 63 μm.
Consider `CCCCCCCCCCCCCCCCCC[n+]1ccc(CCCc2cc[n+](CCCCCCCCCCCCCCCCCC)cc2)cc1` [2Pyr-18,18], for which the MIC in data set [1] was 4 µM; in data set [2], more than 250 µM; in data set [3] it was more than 250 µM; in data set [4] it was 8 µM; in data set [5] it was 8 µM; in data set [6], 16 µM. Moreover, the “Lysis20 (highest concentration at which <20% of RBCs are lysed)” value in data set [7] came out at 32 μm.
On to `CCCCCCCCCCCCC[n+]1ccc(CCCc2cc[n+](CCCCCCCCCCCCC)cc2)cc1` [2Pyr-13,13], for which the MIC in data set [1] was found to be 0.25 µM; in data set [2] it was 1 µM; in data set [3], 8 µM; in data set [4], 0.5 µM; in data set [5] it was 0.5 µM; in data set [6], 0.5 µM. Moreover, the “Lysis20 (highest concentration at which <20% of RBCs are lysed)” value in data set [7] is 16 μm.
As to `CCCCCCCCCCCC[n+]1cccc(CN(Cc2ccc[n+](CCCCCCCCCCCC)c2)Cc2ccc[n+](CCCCCCCCCCCC)c2)c1` [M3Pyr-12,12,12], the MIC in data set [1] turned out to be 0.5 µM; in data set [2], 1 µM; in data set [3] it was 8 µM; in data set [4] it was 1 µM; in data set [5], 1 µM; in data set [6], 1 µM. The “Lysis20 (highest concentration at which <20% of RBCs are lysed)” value in data set [7] turned out to be 4 μm.
